Laboratory results: patent US20090286738A1, “Gene Regulation” (ST. GEORGE'S ENTERPRISES LIMITED, priority 2005, published 2009)
“Also recorded” adds a separate entry of the source. Each block holds one compound with its values, some of them ahead of it.

How the values were obtained:
[1] = tested on: B16 murine melanoma cells; test: Living and dead B16 cells after 3 hours (FIGS. 2A, 9); assay type: cell-based; settings: B16 cells, FIGS. 2 and 3
Protocol: In FIG. 2A the peptides as indicated were applied to the cells at a concentration of 60 μM. The number of living and dead cells were assessed after 3 hours. Black bars=number of cells dead. White bars=number of cells alive.
(§1) The peptides as indicated were applied to the cells at a concentration of 60 μM (FIG. 6A) or 6 μM (FIG. 6B). In both experiments the HXArg9, CX1Arg9 and CX2Arg9 peptides used were the (2D) variant peptides in which the N- and C-terminal amino acids are in the D conformation and all remaining amino acids are in the L conformation. The number of living and dead cells were assessed after 3 hours. Black bars=% or number of cells dead. White bars=% or number of cells alive.
The HXArg9 peptide used was the (2D) variant peptide in which the N- and C-terminal amino acids are in the D conformation and all remaining amino acids are in the L conformation. HXArg9 was applied to the cells at a variety of concentrations (μM), and the number of dead and living cells was assessed after 3 hours. Black bars=% cells dead. White bars=% cells alive.
(§2) Cell lines were seeded at 4×10^4 cells/ml in liquid culture system made of RPMI-1640 medium (Life Technologies, UK) supplemented with Foetal Calf Serum (10% Sigma Aldrich) and penicillin/streptomycin (1%, Sigma) and at least in duplicate. When required the test peptide was added to the medium. Cell lines were cultured for up to 7 days at 37° C., 5% CO2 in humidified atmosphere. Cultured cells were then assessed for cell viability/enumeration using trypan blue exclusion (Sigma Aldrich).

[2] = tested on: malignant cell lines (B16 mouse melanoma, LNCAP human prostate cancer, K562); settings: time scale in which HXP4 shows an effect; cited from earlier work
[3] = Stability of peptides in human plasma at 37° C., SDS-PAGE; assay type: in vitro ADME; settings: 1 mM peptide
Protocol: Peptides were incubated in human serum for the times shown and then visualised on a Coomassie brilliant blue stained gel. The arrow heads indicate the position of intact peptide. Standard=peptide only in this lane as a marker.
The stability of HXArg9(2D) and CX2Arg9(2D) was assessed by incubation each with human plasma at 37° C. and the amount of peptide remaining after different amounts of time was assessed by SDS-PAGE. Each peptide was added to freshly prepared human plasma to a final concentration of 1 mM in a total volume of 40 μl. Samples were incubated at 37° C. and reactions were stopped by adding 60 μl of water and 0.9 ml of protein gel loading buffer (BioRad, USA) containing 1% 2-mercaptoethanol, and heating to 95° C. for four minutes. 2 μl of each sample was run on a 22% acrylamide gel. […] This compared with a half life of approximately 40 minutes for the L isomer form HXArg9.

[4] = tested on: A549 (Human non-small cell lung carcinoma); assay type: cell-based
Source text: (§3) FIG. 5(a): MTT assays to determine the IC50 of the control and hexapeptide-containing peptides.
(§4) These include prostate (Miller, G. J. et al. Cancer Res. 63, 5879-5888 (2003)), renal (Cillo, C. et al. Int. J. Cancer. 51, 892-897 (1992)), bladder (Cantile, M., et al. Oncogene 22, 6462-6468 (2003)), lung (Abe, M. et al. Oncol. Rep. 15, 797-802 (2006)) and ovarian (Cheng, W., et al. Nat. Med. 11, 531-537 (2005)) cancer. In order to determine whether HXArg9 could also block the growth of cells derived from these cancers, we obtained the IC50 using an MTT assay for representative cell lines of each (Table 1).

[5] = tested on: LNCaP (Human prostate cancer); assay type: cell-based
Source text: as §3, §4

B16F10 (Mouse melanoma) = assay type: cell-based
Source text: as §3, §4

[6] = tested on: A498 (Human renal cancer); assay type: cell-based
Source text: as §3, §4

[7] = tested on: SK-OV3 (Human ovarian cancer); assay type: cell-based
Source text: as §3, §4

[8] = tested on: J82 (Human bladder cancer); assay type: cell-based
Source text: as §3, §4

[9] = tested on: malignant cell lines (B16 mouse melanoma, LNCAP human prostate cancer, K562); test: Activity of peptides on different malignant cell lines, living and dead cells after 3 hours (FIGS. 6 to 8); assay type: cell-based; settings: for effect on living/dead cells, cell proliferation: 60 μM or 6 μM, 3 hour exposures, melanoma, prostate cancer and leukaemia cells
Protocol: as §1
as §1, with “7A)” for “6A)”, “7B).” for “6B).”
as §1, with “μM. HXArg9(2D) is” for “μM (FIG. 6A) or 6 μM (FIG. 6B). In both experiments”, “variant form of HXArg9 in which the N-terminal and C-terminal amino acids are in the D conformation and the remaining amino acids are in the L conformation. HXArg9 consists of only L-conformation amino acids. The” for “HXArg9,”, “bars=%” for “bars=% or number of”
as §2
The activity of the peptides described above was tested on a number of different malignant cell lines using a similar assay to that described previously.

[10] = tested on: B16 murine melanoma cells; test: B16 cell growth over a 4 day period (FIGS. 2B, 3); assay type: cell-based; settings: 200 μg/ml for 4 hours, counted day 4
Protocol: In FIG. 2B the peptides as indicated were applied to the cells at a concentration of 200 μg/ml for 4 hours. The number of cells present was assessed on the day of treatment (white bars) and on day 4 (diagonal stripes).
A=untreated; B=CXP4; C=HXP4; D=HXP4(3D)2; E=HXP4(3D)3; F=HXP4(3D)4.
as §2

B16 cells = test: Apoptosis of B16 cells (microscopy, Hoechst, Annexin V FACS); assay type: cell-based, murine; settings: in combination with HXArg9(2D)
Protocol: FIG. 5(b): Light micrographs of B16 cells treated with 60 μM HXArg9(2D) (HXR9) or CX2Arg9(2D) (CXR9) for two hours. Scale bar=40 μm.
FIG. 5(c) Transmission electron micrographs of B16 cells treated with 60 μM HXR9 or CXR9 for two hours. Scale bar=[…].
FIG. 5(d) FACS sorting of B16 cells with Annexin. Cells were treated as indicated above each plot. The lower left hand quadrant represents normal, viable cells. The bottom and top right hand quadrants represent cells in early and late apoptosis, respectively, and the top left hand quadrant represents cells in necrosis.
Apoptotic morphology was determined using scanning electron microscopy and fluorescence microscopy. Changes in nuclear morphology were assessed by fixing B-16 cytospins with ice-cold methanol at room temperature for five minutes. The fixed cells were stained with Hoechst 33258 (2 μg/ml) (Sigma) and mounted using VECTASHIELD® mounting medium (Vector) and analyzed by fluorescence microscopy (Nikon Eclipse TE 2000-S).
An additional sign of apoptosis is the appearance of phosphatidylserine in the cell membrane (Koopman, G. et al. Blood 84, 1415-1420 (1994)). This can be detected by fluorescencently labeled Annexin V protein and cell sorting using FACS.
This is a specific inhibitor of the caspase proteases, which are key components of the apotopic pathway (Zhu, H., et al. FEBS Lett. 374, 303-308 (1995)).

Compound: WYPWMKKHHRQIKIWFQNRRMKWKK [HXP4(3D)1]
- activity of D-isomer variants of HXP4 [1]: slightly higher activity than the other 3D isomers

Compound: WCPWLDRHGRQIKIWFQNRRMKWKK [CXP4]
- effect in a similar assay, previously shown [2]: ineffective

- half-life at 1 mM [3]: ~12 h
- IC50 [4]: 19 µM
- IC50 [5]: 21 µM
- IC50 (B16F10 (Mouse melanoma)): 20 µM
- IC50 [6]: 24 µM
- IC50 [7]: 22 µM
- IC50 [8]: 22 µM
Compound: CSCC[C@H](NC(=O)[C@H](Cc1c[nH]c2ccccc12)NC(=O)[C@@H]1CCCN1C(=O)[C@H](Cc1ccc(O)cc1)NC(=O)[C@H](N)Cc1c[nH]c2ccccc12)C(=O)N[C@@H](CCCCN)C(=O)N[C@@H](CCCCN)C(=O)N[C@@H](Cc1c[nH]cn1)C(=O)N[C@@H](Cc1c[nH]cn1)C(=O)N[C@@H](CCCNC(=N)N)C(=O)N[C@@H](CCCNC(=N)N)C(=O)N[C@@H](CCCNC(=N)N)C(=O)N[C@@H](CCCNC(=N)N)C(=O)N[C@@H](CCCNC(=N)N)C(=O)N[C@@H](CCCNC(=N)N)C(=O)N[C@@H](CCCNC(=N)N)C(=O)N[C@@H](CCCNC(=N)N)C(=O)N[C@H](CCCNC(=N)N)C(=O)O [HXArg9(2D), WYPWMKKHHRRRRRRRRR]

Compound: WYPWMKKHHRQIKIWFQNRRMKWKK [HXP4]
- effect on living/dead cells, cell proliferation [9]: no effect
- time required to achieve the same response ([9]; compared with 3 hour exposures for HXArg9): 4 days
- cell growth over a 4 day period [10]: significantly reduced cell growth

Compound: WCPWLDRHGRRRRRRRRR [CX1Arg9, control peptide based on HXArg9 with amino acid substitutions]
- effect on living/dead cells, cell proliferation [9]: some activity

- half-life at 1 mM [3]: ~12 h
- IC50 [4]: 240 µM
- IC50 [5]: 220 µM
- IC50 (B16F10 (Mouse melanoma)): 200 µM
- IC50 [6]: 280 µM
- IC50 [7]: 270 µM
- IC50 [8]: 290 µM
Compound: CSCC[C@@H](N)C(=O)N[C@@H](CS)C(=O)N[C@@H](C)C(=O)N[C@@H](C)C(=O)NCC(=O)N[C@@H](CC(=O)O)C(=O)N[C@@H](CC(=O)O)C(=O)N[C@@H](C)C(=O)N[C@@H](CC(C)C)C(=O)N[C@@H](CCCNC(=N)N)C(=O)N[C@@H](CCCNC(=N)N)C(=O)N[C@@H](CCCNC(=N)N)C(=O)N[C@@H](CCCNC(=N)N)C(=O)N[C@@H](CCCNC(=N)N)C(=O)N[C@@H](CCCNC(=N)N)C(=O)N[C@@H](CCCNC(=N)N)C(=O)N[C@@H](CCCNC(=N)N)C(=O)N[C@H](CCCNC(=N)N)C(=O)O [CX2Arg9(2D), MCAAGDDALRRRRRRRRR, reference compound]

Compound: MCAAGDDALRRRRRRRRR [CX2Arg9, more extensively changed version of the control peptide CX1Arg9, reference compound]
- effect on living/dead cells, cell proliferation [9]: no effect on cell proliferation

Compound: Z-VAD
- cell death / apoptosis on co-treatment with HXArg9(2D) (B16 cells): significant reduction in cell death; also recorded: significant reduction in the number of cells undergoing apoptosis
